In article PMC6143625, “A high throughput screen for next-generation leads targeting malaria parasite transmission” (Nature Communications, 2018):
Several values for one entry are separate records, joined by “and”; a condition that tells them apart may be missing. Equal values may be shown once.

Columns and labels:
[1] = test system: NF54 stage V gametocytes; assay: Gametocytocidal MitoTracker-based viability assay (SaLSSA); type: cell-based, Plasmodium falciparum NF54; details: Plasmodium falciparum, NF54; 72h incubation; read-out: Pf Stage V GCT (mitotracker assay) IC50
Method: As another independent assessment of the metabolic viability of compound-treated stage V gametocytes, the Saponin-lysis Sexual Stage Assay (SaLSSA) was employed. A volume of 100 nl of test compounds were pre-dispensed in 384-well plates (781091-2B, Greiner) in 12-point dose response (25 µM to 1.41 × 10^−4 µM), prior to the addition of synchronous NF54 stage V gametocytes (40 µl at 0.70% gametocytaemia). Assay plates were then incubated for 72 h in a low oxygen environment (92% N2, 5% CO2, 3%O2) before a 10 µl MitoTracker Red CMXRos (2.5 µM) and saponin solution (0.13%w/v) was added. Plates were returned to 37 °C for 1 h to allow for complete red blood cell lysis, after which viable gametocytes were detected using an Operetta high-content imaging system. Analysis was performed using the Harmony package software, with potency calculated relative to puromycin (positive control) and DMSO (negative control).

[2] = test system: P. falciparum male gametocytes; assay: Pf DGFA wash-out format, male readout; type: cell-based; details: Plasmodium falciparum; 48h preincubation/wash-out
[3] = test system: P. falciparum female gametocytes; assay: Pf DGFA wash-out format, female readout; type: cell-based; details: Plasmodium falciparum; 48h preincubation/wash-out
[4] = test system: P. falciparum female gamete formation; assay: Pf DGFA add-in format, female readout; type: cell-based; details: Plasmodium falciparum; 0h preincubation/add-in
Method: In profiling mode, the Pf DGFA was performed in 96-well plates[23] in wash-out and add-in formats to aid manual manipulation steps. In the wash-out format, gametocytes were incubated for 24 h with test compounds in round-bottomed 96 well plates and then culture medium replaced three times over 6 h, to remove as much of the compound as possible from the well. […] In add-in format, gametocytes were added directly to flat-bottomed 96-well plates containing test compounds, ookinete medium and anti-Pfs25.

[5] = test system: P. berghei strain CTRPpGFP early mosquito stage (ookinete) development; assay: P. berghei ookinete development assay (Pb ODA); type: cell-based, Plasmodium berghei; details: Plasmodium berghei; 24h incubation
Method: All mouse procedures were performed in accordance with the UK Animals (Scientific Procedures) Act (PPL 70/7185) and approved by the Imperial College Animal Welfare and Ethical Review Body (AWERB). The ability of test compounds to inhibit P. berghei early mosquito stage development was tested in the Ookinete Development Assay[37] with a few exceptions. Anaesthetised 6- to 8-week-old female Tucks Ordinary (TO) mice infected with P. berghei strain CTRPpGFP[38] were rapidly exsanguinated by cardiac puncture and 500 µl of blood diluted in 25 ml of ookinete medium supplemented with 20% foetal bovine serum. Immediately the blood/medium mixture was dispensed by multichannel pipette into 384 well plates containing pre-plated test compounds. 10 µM cycloheximide and DMSO were used as the positive and negative controls, respectively. Plates were stored in the dark in a humidified incubator at 18 °C for 24 h. Ookinete production was imaged by fluorescence microscopy of GFP expression under the ookinete-specific CTRP promoter using a Nikon Ti-E widefield microscope and ×10 objective. Ookinete production was quantified using ICY and percentage inhibition calculated as above with reference to positive and negative controls.

[6] = test system: P. falciparum transmission to Anopheles stephensi mosquitoes; assay: P. falciparum standard membrane-feeding assay (SMFA), luciferase oocyst readout; type: in vivo, Plasmodium falciparum; details: 10 µM; for Average oocyst intensity / Prevalence: mode indirect, per experiment
Method: SMFAs were performed commercially by TropiQ Health Sciences (Nijmegen, The Netherlands)[26]. Cultures of mature stage V gametocytes of P. falciparum expressing a GFP-Luciferase fusion protein under the control of the hsp70 promoter were treated with DMSO or 10 µM of test compound for 24 h (indirect mode). They were then mixed with uninfected erythrocytes and pelleted. The cell pellet was resuspended in human serum to form the blood meal and fed to Anopheles stephensi mosquitoes. […] Eight days after infection, mosquitoes were individually processed and their lysate assessed for luciferase activity in comparison to uninfected mosquitoes.

[7] = test system: P. berghei 507 strain in mice, transmission to Anopheles stephensi; assay: P. berghei mosquito (direct) feeding assay in infected mice; type: in vivo, Plasmodium berghei; details: for transmission blocking efficacy at the oocyst level: 24 h before mosquito feeding; for suppression of gametocytaemia compared to vehicle-only controls: 24 h exposure; for effect on asexual parasitaemia: single dose
Method: Six- to eight-week female T0 mice were treated with phenylhydrazine 3 days prior to intraperitoneal (IP) inoculation with 100 µl of mouse blood infected with the constitutively GFP expressing P. berghei 507 strain[39]. On day 3 after infection, thin blood smears were taken from tail blood to quantify parasitaemia and gametocytaemia. […] […] Twenty-four hours after feeding, unfed mosquitoes were removed and remaining mosquitoes maintained for a further 9 days on sucrose solution. Mosquito midguts were then dissected, imaged and oocysts quantified by semi-automated computer analysis.

[8] = test system: P. falciparum stage V male gametocytes (male gamete formation); assay: P. falciparum dual gamete formation assay (Pf DGFA), male readout (exflagellation), 48 h carry-over format; type: cell-based, Plasmodium falciparum NF54; details: Plasmodium falciparum, 24h preincubation/carry-over
[9] = test system: HepG2 human cells; design: method as in http://dx.doi.org/10.6019/CHEMBL3507680; details: ref http://dx.doi.org/10.6019/CHEMBL3507680; cited from earlier work
[10] = Dose 30min prior, per mouse, listed as DDD881
[11] = Dose 24hr prior to feeding, per mouse
[12] = per mouse, 50mg/kg, baseline, listed as DDD291, 50 mg/kg
[13] = per mouse, 50mg/kg, listed as DDD291, 50 mg/kg

SMILES	IC50 [1] [µM]	IC50 [2] [µM]	IC50 [3] [µM]	IC50 [4] [µM]	IC50 [5] [µM]	transmission blocking efficacy at the oocyst level ([7]; 50 mg kg^−1 IP)	suppression of gametocytaemia compared to vehicle-only controls ([7]; 50 mg kg^−1 IP)	effect on asexual parasitaemia ([7]; 50 mg kg^−1 IP)	Infection Prevalence (%) [7, 11] [%]	IC50 [8] [µM]	%Inh HepG2 @10uM [9] [%]	further results
O=S(=O)(NCC1(O)CCOc2ccccc21)c1ccc(Br)s1 (stereo not shown) [DDD01035881]	> 25	> 12.5	> 12.5	> 10	0.11	no transmission blocking efficacy	not impacted	not impacted	100	0.26	3.29	Average oocyst intensity ([6]; listed as DDD881): 4.2 and 4.1; Prevalence ([6]; listed as DDD881): 1.4% and 0.0%; blockade on oocyst intensity ([7]; 50 mg kg^−1 IP, 30 min before the feed): 99.6%; Infection Prevalence (%) [7, 10]: 54.35% and 23.08%; Mean oocysts per mosquito [7, 10]: 1.43 and 0.60; Mean oocysts per mosquito ([7]; Dose 24hr prior to feeding, per mouse, listed as DDD881): 330.22 and 190.61
OC1(CN2CCC(Oc3cccc(C(F)(F)F)c3)CC2)CCNC1 (stereo not shown) [DDD01245291]	> 12.5	0.68	1.51	> 10	> 25	not possible to measure a reduction in transmission at the oocyst level	~ 6 fold	did not affect asexual parasitaemia	100	5.99	-7.31	prevalence of infection, % of the DMSO control ([6]; indirect mode): no infected mosquitoes observed; mean normalised luciferase intensity ([6]; indirect mode, 24 h gametocyte incubation, oocysts 8 days later): 1.37 arbitrary units; Prevalence [6]: 0.0%; Average oocyst intensity ([6]; listed as DDD291): 2.7 and 3.2 and 3.3; Mean oocysts per mosquito ([7]; Dose 24hr prior to feeding, per mouse, listed as DDD291): 239.06 and 211.28; Asexual parasitemia (%) Before treatment [7, 12]: 0.86% and 0.55%; Gametocytemia (%) Before treatment [7, 12]: 0.32% and 0.16%; Asexual parasitemia (%) 24hr After treatment [7, 13]: 5.70% and 4.55%; Gametocytemia (%) 24hr After treatment [7, 13]: 0.30% and 0.51%
